From patent publication US8093389B2, “Substituted spirochromanone derivatives” (Merck Sharp & Dohme Corp., priority 2007, dated 2012)
Where a name gives a salt, the structure may show the parent alone.

Legend:
human ACC1 = human ACC1 (Homo sapiens, UniProt Q13085); experiment: Acetyl CoA carboxylase (ACC) activity inhibition test, human ACC1; type: biochemical; details: 1 μmol/liter test compound; read-out: Inhibition (%) by 1 μmol/liter Chemical, human ACC1
Experimental: (§1) A. Pharmacological Test Example (Acetyl CoA Carboxylase (ACC) Activity Inhibition Test)
(§2) A test compound is dissolved in dimethyl sulfoxide (DMSO) to a concentration of 10 mM and then diluted with DMSO to give a 100-fold concentrated solution of the compound compared with target assay concentration. The ACC enzyme activity inhibition test is carried out according to a modification of Thampy & Wakil's method (J. Biol. Chem., Vol. 260, pp. 6318-6323 (1985)). Concretely, 0.8 μl of the diluted test compound is added to each well of 96-well assay plate (Perkin Elmer Opti Plate), then 40 μl of a substrate solution (50 mM Hepes sodium (pH 7.5), 2 mM DTT, 10 mM ATP, 500 μM acetyl CoA, 0.17 mM NaH[^14C]O3 (58 mCi/mmol, by Amersham), 8 mM NaHCO3) is added to each well, and 40 μL of an enzyme solution (1 to 2 nM human ACC1 or human ACC2, 50 mM Hepes sodium (pH 7.5), 2 mM DTT, 40 mM MgCl2, 40 mM tripotassium citrate 1 mg/ml fetal bovine serum albumin) is added thereto. Then, the upper side of the plate is sealed up, and the plate is incubated with gently stirring at 37° C. for 40 minutes. Next, 20 μl of 1 N HCl is added to each well to stop the enzyme reaction, and the assay plate is stirred overnight to remove the unreacted NaH[^14C]O3. Next, 100 μl of a scintillator (Perkin Elmer's Microscinti 40) is added to each well and the plate is stirred, then the radioactivity of the fixed [^14C] is counted using a microplate scintillation counter (Perkin Elmer's Topcount), the radioactivity of which represents the enzyme activity in each well. The human ACC1 and human ACC2 enzyme-inhibition activities of the test compounds are calculated, based on the radioactivity of the well added by DMSO without test compound as a control.

human ACC2 = human ACC2 (Homo sapiens, UniProt O00763); experiment: Acetyl CoA carboxylase (ACC) activity inhibition test, human ACC2; type: biochemical; details: 1 μmol/liter test compound; read-out: Inhibition (%) by 1 μmol/liter Chemical, human ACC2
Chain of human ACC2 (O00763 whole entry): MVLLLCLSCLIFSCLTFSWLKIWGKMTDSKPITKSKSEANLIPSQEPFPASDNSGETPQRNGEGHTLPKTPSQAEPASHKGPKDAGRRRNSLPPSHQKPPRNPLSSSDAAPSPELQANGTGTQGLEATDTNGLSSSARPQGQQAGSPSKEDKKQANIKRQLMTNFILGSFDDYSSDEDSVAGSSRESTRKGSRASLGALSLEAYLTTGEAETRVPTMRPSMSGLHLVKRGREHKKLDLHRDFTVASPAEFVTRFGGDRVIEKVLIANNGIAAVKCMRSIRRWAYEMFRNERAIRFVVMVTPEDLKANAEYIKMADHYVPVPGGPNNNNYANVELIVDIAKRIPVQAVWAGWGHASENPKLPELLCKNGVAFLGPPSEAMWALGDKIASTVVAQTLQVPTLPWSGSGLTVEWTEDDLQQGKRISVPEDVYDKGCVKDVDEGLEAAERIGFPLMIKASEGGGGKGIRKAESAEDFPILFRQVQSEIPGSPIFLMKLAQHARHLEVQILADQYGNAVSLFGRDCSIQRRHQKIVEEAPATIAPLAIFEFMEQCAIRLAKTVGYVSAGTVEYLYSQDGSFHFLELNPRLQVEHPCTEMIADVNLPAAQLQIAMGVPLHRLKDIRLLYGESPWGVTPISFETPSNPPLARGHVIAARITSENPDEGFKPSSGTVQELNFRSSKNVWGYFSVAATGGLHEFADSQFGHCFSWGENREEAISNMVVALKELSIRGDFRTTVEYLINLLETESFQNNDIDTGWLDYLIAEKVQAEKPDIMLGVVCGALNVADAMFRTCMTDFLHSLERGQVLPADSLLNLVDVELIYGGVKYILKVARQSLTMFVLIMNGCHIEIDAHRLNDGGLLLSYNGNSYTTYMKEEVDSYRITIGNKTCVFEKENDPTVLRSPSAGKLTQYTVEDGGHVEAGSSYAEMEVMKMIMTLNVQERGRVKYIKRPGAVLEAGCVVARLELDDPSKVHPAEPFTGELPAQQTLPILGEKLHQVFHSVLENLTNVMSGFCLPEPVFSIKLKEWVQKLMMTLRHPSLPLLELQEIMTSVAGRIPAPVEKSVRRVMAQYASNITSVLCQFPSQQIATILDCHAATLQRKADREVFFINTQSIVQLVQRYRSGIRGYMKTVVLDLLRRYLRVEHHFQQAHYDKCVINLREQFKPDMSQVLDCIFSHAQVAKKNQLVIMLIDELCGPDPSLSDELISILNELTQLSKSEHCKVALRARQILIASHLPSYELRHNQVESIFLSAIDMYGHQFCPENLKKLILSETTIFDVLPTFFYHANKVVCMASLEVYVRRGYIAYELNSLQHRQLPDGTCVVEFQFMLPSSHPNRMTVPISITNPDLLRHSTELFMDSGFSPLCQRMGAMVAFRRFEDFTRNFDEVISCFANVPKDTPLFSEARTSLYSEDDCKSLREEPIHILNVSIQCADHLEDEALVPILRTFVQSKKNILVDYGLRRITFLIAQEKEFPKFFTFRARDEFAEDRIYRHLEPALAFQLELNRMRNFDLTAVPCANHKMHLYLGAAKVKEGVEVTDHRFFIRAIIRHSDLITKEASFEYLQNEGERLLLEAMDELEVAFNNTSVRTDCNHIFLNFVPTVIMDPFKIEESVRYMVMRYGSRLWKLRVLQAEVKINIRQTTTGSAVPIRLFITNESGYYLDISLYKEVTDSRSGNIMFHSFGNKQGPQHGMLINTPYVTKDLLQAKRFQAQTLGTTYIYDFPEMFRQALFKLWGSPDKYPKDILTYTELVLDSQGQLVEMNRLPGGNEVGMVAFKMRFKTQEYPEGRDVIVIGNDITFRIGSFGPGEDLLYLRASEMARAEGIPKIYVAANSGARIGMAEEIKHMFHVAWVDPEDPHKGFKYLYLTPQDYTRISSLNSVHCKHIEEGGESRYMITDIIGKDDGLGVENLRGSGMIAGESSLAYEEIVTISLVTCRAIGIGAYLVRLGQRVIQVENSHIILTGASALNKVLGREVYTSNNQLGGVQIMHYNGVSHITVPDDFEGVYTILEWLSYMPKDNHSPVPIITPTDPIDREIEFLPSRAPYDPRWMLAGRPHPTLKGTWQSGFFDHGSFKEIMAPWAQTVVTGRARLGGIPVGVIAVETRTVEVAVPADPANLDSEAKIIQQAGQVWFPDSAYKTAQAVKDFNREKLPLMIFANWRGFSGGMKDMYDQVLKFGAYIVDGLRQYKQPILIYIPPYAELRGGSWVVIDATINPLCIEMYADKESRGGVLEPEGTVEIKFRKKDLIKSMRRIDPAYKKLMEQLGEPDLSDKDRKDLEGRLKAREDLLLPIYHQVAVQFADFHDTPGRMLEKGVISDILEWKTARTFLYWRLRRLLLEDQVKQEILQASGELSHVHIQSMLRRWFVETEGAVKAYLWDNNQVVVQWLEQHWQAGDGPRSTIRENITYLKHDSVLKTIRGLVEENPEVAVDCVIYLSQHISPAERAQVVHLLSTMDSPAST
Experimental: as §1, §2

Row | inhibition at 1 µM (human ACC1) [%] | inhibition at 1 µM (human ACC2) [%] | SMILES
1 | 91 | 89 | CCn1cnc2c(OC)cc(C(=O)N3CCC4(CC3)CC(=O)c3cc(-c5nnn[nH]5)ccc3O4)cc21 [Example 1, 1-[(1-Ethyl-4-methoxy-1H-benzimidazol-6-yl)carbonyl]-6-(1H-tetrazol-5-yl)spiro[chroman-2,4′-piperidine]-4-one]
2 | 93 | 93 | COc1cc(C(=O)N2CCC3(CC2)CC(=O)c2cc(-c4nnn[nH]4)ccc2O3)cn2c(C3CC3)cnc12 [Example 2, 1′-[(3-Cyclopropyl-8-methoxyimidazo[1,2-a]pyridin-6-yl)carbonyl]-6-(1H-tetrazol-5-yl)spiro[chroman-2,4′-piperidin]-4-one]
3 | 100 | 97 | COc1cc(C(=O)N2CCC3(CC2)CC(=O)c2cc(-c4noc(=O)[nH]4)ccc2O3)cc2c1ccn2C1CC1 [Example 3, 1′-[(1-Cyclopropyl-4-methoxy-1H-indol-6-yl)carbonyl]-6-(5-oxo-4,5-dihydro-1,2,4-oxadiazol-3-yl)spiro[chroman-2,4′-piperidin]-4-one]
4 | 96 | 97 | CCn1ccc2c(OCCO)cc(C(=O)N3CCC4(CC3)CC(=O)c3cc(-c5nnn[nH]5)ccc3O4)cc21 [Example 4, 1′-{[1-Ethyl-4-(2-hydroxyethoxy)-1H-indol-6-yl]carbonyl}-6-(1H-tetrazol-5-yl)spiro[chroman-2,4′-piperidin]-4-one]
5 | 99 | 99 | COc1cc(C(=O)N2CCC3(CC2)CC(=O)c2cc(-c4cccc(C(=O)O)c4)ccc2O3)cc2c1ccn2C1CC1 [Example 5, Sodium 3-{1′-[(1-cyclopropyl-4-methoxy-1H-indol-6-yl)carbonyl]-4-oxospiro[chroman-2,4′-piperidin]-6-yl}benzoate]
6 | 100 | 99 | COc1cc(C(=O)N2CCC3(CC2)CC(=O)c2cc(-c4cncc(C(=O)O)c4)ccc2O3)cc2c1ccn2C1CC1 [Example 7, 5-{1′-[(1-Cyclopropyl-4-methoxy-1H-indol-6-yl)carbonyl]-4-oxospiro[chroman-2,4′-piperidin]-6-yl}nicotinic acid sodium salt]
7 | 99 | 99 | COc1cc(C(=O)N2CCC3(CC2)CC(=O)c2cc(-c4nnn[nH]4)ccc2O3)cc2c1ccn2OC [Example 8, 1′-{[1,4-Dimethoxy-1H-indol-6-yl]carbonyl}-6-(1H-tetrazol-5-yl)spiro[chroman-2,4′-piperidin]-4-one]
8 | 93 | 96 | CCn1ncc2c(OC)cc(C(=O)N3CCC4(CC3)CC(=O)c3cc(-c5nnn[nH]5)ccc3O4)cc21 [Example 10, 1′-[(1-Ethyl-4-methoxy-1H-indazol-6-yl)carbonyl]-6-(1H-tetrazol-5-yl)spiro[chroman-2,4′-piperidin]-4-one]
9 | 99 | 98 | COc1cc(C(=O)N2CCC3(CC2)CC(=O)c2cc(-c4nnn[nH]4)ccc2O3)cc2c1ccn2C1CC1 [Example 11, 1′-[(1-Cyclopropyl-4-methoxy-1H-indol-6-yl)carbonyl]-6-(1H-tetrazol-5-yl)spiro[chroman-2,4′-piperidin]-4-one]
10 | 100 | 99 | CCOc1cc(C(=O)N2CCC3(CC2)CC(=O)c2cc(-c4nnn[nH]4)ccc2O3)cc2c1ccn2C1CC1 [Example 13, 1′-[(1-Cyclopropyl-4-ethoxy-1H-indol-6-yl)carbonyl]-6-(1H-tetrazol-5-yl)spiro[chroman-2,4′-piperidin]-4-one]
11 | 98 | 99 | CCOc1cc(C(=O)N2CCC3(CC2)CC(=O)c2cc(-c4nnn[nH]4)ccc2O3)cc2c1c(C)cn2C1CC1 [Example 17, 1′-[(1-Cyclopropyl-4-ethoxy-3-methyl-1H-indol-6-yl)carbonyl]-6-(1H-tetrazol-5-yl)spiro[chroman-2,4′-piperidin]-4-one]
12 | 99 | 98 | COc1cc(C(=O)N2CCC3(CC2)CC(=O)c2cc(-c4cncc(C(=O)O)c4)ccc2O3)cc2c1c(C)cn2C1CC1 [Example 23, 5-{1′-[(1-Cyclopropyl-4-methoxy-3-methyl-1H-indol-6-yl)carbonyl]-4-oxo-spiro[chroman-2,4′-piperidin]-6-yl}nicotinic acid sodium salt]
13 | 99 | 100 | COc1cc(C(=O)N2CCC3(CC2)CC(=O)c2cc(-c4cncc(C(=O)O)c4)ccc2O3)cc2c1c(Cl)cn2C1CC1 [Example 24, 5-{1′-[(3-Chloro-1-cyclopropyl-4-methoxy-1H-indol-6-yl)carbonyl]-4-oxo-spiro[chroman-2,4′-piperidin]-6-yl}nicotinic acid sodium salt]
14 | 97 | 98 | CCOc1cc(C(=O)N2CCC3(CC2)CC(=O)c2cc(-c4nnn[nH]4)ccc2O3)cc2c(C3CC3)noc12 [Example 31, 1′-[(3-cyclopropyl-7-ethoxy-1,2-benzisoxazol-5-yl)carbonyl]-6-(1H-tetrazol-5-yl)spiro[chroman-2,4′-piperidin]-4-one]
15 | 99 | 99 | O=C1CC2(CCN(C(=O)c3cc(OCCO)c4ccn(C5CC5)c4c3)CC2)Oc2ccc(-c3nnn[nH]3)cc21 [Example 36]
16 | 100 | 100 | CCOc1cc(C(=O)N2CCC3(CC2)CC(=O)c2cc(-c4cncc(C(=O)O)c4)ccc2O3)cc2c1c(C)cn2C1CC1 [Example 45, 5-{1′-[(1-cyclopropyl-4-ethoxy-3-methyl-1H-indol-6-yl)carbonyl]-4-oxospiro[chroman-2,4′-piperidin]-6-yl}nicotinic acid]
17 | 99 | 99 | CCn1ccc2c(OC)cc(C(=O)N3CCC4(CC3)CC(=O)c3cc(-c5nnn[nH]5)ccc3O4)cc21 [Example 56, 1′-[(1-ethyl-4-methoxy-1H-indol-6-yl)carbonyl]-6-(1H-tetrazol-5-yl)spiro[chroman-2,4′-piperidin]-4-one]
18 | 99 | 99 | COc1cc(C(=O)N2CCC3(CC2)CC(=O)c2cc(-c4nnc(C(N)=O)[nH]4)ccc2O3)cc2c1ccn2C1CC1 [Example 57, 5-{1′-[(1-cyclopropyl-4-methoxy-1H-indol-6-yl)carbonyl]-4-oxo-spiro[chroman-2,4′-piperidin]-6-yl}-4H-1,2,4-triazole-3-carboxamide]
